{
  "source": "patent US6432446B1",
  "about": "“Non-arrhythmogenic metabolite of oxybutynin” (Bridge Pharma, Inc., priority 2000, dated 2002)",
  "key": {"Male guinea pigs": {"system": "Male guinea pigs", "assay": "Cardiac side effects: QTc interval of the EKG in anesthetized guinea pigs", "format": "in vivo, guinea pig", "conditions": "intravenous infusion over 30 min", "protocol": "Male guinea pigs (450-600 g) are anesthetized with freshly prepared dialurethane sodium. The jugular vein is catheterized for iv administration of test drugs and the trachea is exposed and cannulated. Subdermal electrodes are positioned for Lead II electrocardiogram recording, monitored on a Grass Polygraph recorder, set at a paper speed of 50 nmmsec. The animals are allowed to stabilize for 30 minute after completion of surgery, and three baseline EKG recordings are then made at 10-minute intervals. The animals are then given a dose of the test compound or vehicle as an intravenous inflision over 30 min. EKG recordings are used to determine QT intervals and heart rates. To compensate for variations in heart rates, QTc intervals are calculated from QT- and RR-intervals as known to those skilled in the art. Prolongation of QTc is indicative of a prolonged action potential, caused by an inhibition of the delayed rectifier potassium channel. Prolongation of QTc is the known cause of Torsades de Pointes ventricular fibrillation by drugs such as terfenadine and astemizole (now withdrawn from the market)."}, "[1]": {"conditions": "isomers of racemic oxybutynin; cited from earlier work"}, "[2]": {"system": "patients with conditions characterized by involuntary bladder contractions", "conditions": "clinical studies; cited from earlier work"}, "[3]": {"assay": "Risk for torsades des pointes of drugs combined with oxybutynin"}, "[4]": {"conditions": "drugs withdrawn from the market because of this side effect; cited from earlier work"}, "[5]": {"system": "Strips of intestinal smooth muscle tissue", "protocol": "2. Functional Characterization of Antimuscarinic/Antispasmodic Activity.\nStrips of intestinal smooth muscle tissue are removed from the body of male Hartley guinea pigs weighing 400-600 g. The strips are suspended in an oxygenated buffer of the following composition, in mM: NaCl, 133; KCl, 4.7; CaCl2, 2.5; MgSO4, 0.6; NaH2PO4, 1.3; NaHCO3, 16.3; and glucose, 7.7, or a similar balanced physiological solution. They are maintained at constant temperature. Contractions are recorded with isometric transducers (Model FT-10) on an ink-writing polygraph.\nIn each experiment up to seven strips are removed from a single animal, suspended in individual tissue chambers and allowed to equilibrate with the bathing solution for one hour before proceeding with the experiment.\nIn order to assess the viability of each tissue and to serve as a frame of reference, contractions of each strip of tissue are recorded initially in response to exposure to a tissue medium in which the NaCl was replaced by KCl to yield a concentration of 137.7 mM KCl in the medium. […] Then, leaving one strip untreated and/or one strip exposed to the test solution to serve as control tissue(s), the remaining strips each are exposed for one hour to one concentration of an antagonist. Finally, the responses to increasing concentrations of carbachol followed by exposure to 137.7 mM KCl are recorded a second time. To determine whether antagonists decrease the peak response to agonists, the peak tension developed by each strip during the second set of determinations is expressed as a percent of the peak tension developed during the first concentration-effect determination. Then, for each antagonist the resultant data are analyzed using standard statistical methodology."}, "[6]": {"system": "benzothiazepine receptors", "assay": "Affinity for benzothiazepine receptors", "format": "binding", "conditions": "compared with the des-ethyl metabolite"}, "[7]": {"system": "human recombinant muscarinic receptor subtypes", "assay": "Ligand binding studies: muscarinic receptors", "conditions": "compared with the des-ethyl metabolite", "protocol": "1. Ligand Binding Studies: Muscarinic Receptors.\nThe experiments are carried out on membranes prepared from SF9 cells infected with baculovirus to express human recombinant muscarinic receptor subtypes. After incubation with the test article and the proper radioligand and washing, bound radioactivity is determnined with a liquid scintillation counter, using a commercial scintillation cocktail. The specific radioligand binding to each receptor is defined as the difference between total binding and nonspecific binding determined in the presence of an excess of unlabelled ligand. IC50 values (concentrations required to inhibit 50% of specific binding) are determined by non linear regression analysis of the competition curves. These parameters are obtained by curve fitting using Sigmaplot software."}},
  "data": [
    {"compound": "CCN(CC)CC#CCOC(=O)[C@@](O)(c1ccccc1)C1CCCCC1", "note": "(single isomer, unassigned) [S(+)-isomer, S(+)-oxybutynin]", "values": [
      {"measurement": "prolongation of the QTc-interval of the EKG", "setting": "Male guinea pigs", "value": "cause a prolongation of the QTc-interval"},
      {"measurement": "spasmolytic activity", "setting": "[1]", "value": "direct spasmolytic activity"}
    ]},
    {"compound": "CCN(CC)CC#CCOC(=O)C(O)(c1ccccc1)C1CCCCC1", "note": "(racemic) [oxybutynin, 4-diethylamino-2-butynyl cyclohexylphenylglycolate]", "values": [
      {"measurement": "bladder capacity", "setting": "[2]", "value": "increases bladder capacity"},
      {"measurement": "frequency of involuntary contractions of the detrusor muscle", "setting": "[2]", "value": "diminishes the frequency of involuntary contractions of the detrusor muscle"},
      {"measurement": "initial desire to void", "setting": "[2]", "value": "delays the initial desire to void"},
      {"measurement": "prolongation of the QTc-interval of the EKG", "setting": "Male guinea pigs", "value": "causes a prolongation of the QTc-interval"}
    ]},
    {"compound": "CC(=O)N1CCN(c2ccc(OCC3COC(Cn4ccnc4)(c4ccc(Cl)cc4Cl)O3)cc2)CC1", "note": "(stereo not drawn) [ketoconazole]", "values": [
      {"measurement": "risk for torsades des pointes", "setting": "[3]", "value": "further increase the risk for torsades des pointes"}
    ]},
    {"compound": "COc1ccc(CCN2CCC(Nc3nc4ccccc4n3Cc3ccc(F)cc3)CC2)cc1", "note": "[astemizole]", "values": [
      {"measurement": "prolongation of QTc", "setting": "[4]", "value": "found to cause prolongation of QTc"}
    ]},
    {"compound": "CCNCC#CCOC(=O)[C@](O)(c1ccccc1)C1CCCCC1", "note": "(single isomer, unassigned) [R-isomer of the des-ethyl metabolite of oxybutynin]", "values": [
      {"measurement": "antimuscarinic / anticholinergic activity", "setting": "[5]", "value": "potent antimuscarinic agent"}
    ]},
    {"compound": "CCNCC#CCOC(=O)[C@@](O)(c1ccccc1)C1CCCCC1", "note": "(single isomer, unassigned) [S-isomer of the des-ethyl metabolite of oxybutynin]", "values": [
      {"measurement": "antimuscarinic / anticholinergic activity", "setting": "[5]", "value": "weak anticholinergic activity"},
      {"measurement": "spasmolytic activity", "setting": "[5]", "value": "spasmolytic agent"}
    ]},
    {"compound": "CCNCC#CCOC(=O)C(O)(c1ccccc1)C1CCCCC1", "note": "(racemic) [desethyl metabolite of oxybutynin, 4-ethylamino-2-butynyl cyclohexyl-phenylglycolate]", "values": [
      {"measurement": "prolongation of the QTc-interval of the EKG", "setting": "Male guinea pigs", "value": "free from said cardiac side effect"}
    ]},
    {"compound": "CC(CC(c1ccccc1)c1ccccc1)NC(C)(C)C", "note": "(stereo not drawn) [terodiline]", "values": [
      {"measurement": "prolongation of QTc", "setting": "[4]", "value": "found to cause prolongation of QTc"}
    ]},
    {"compound": "didesethyloxybutynin [didesethyl metabolite]", "values": [
      {"measurement": "prolongation of the QTc-interval of the EKG", "setting": "Male guinea pigs", "value": "does not prolong the QTc interval"},
      {"measurement": "affinity for benzothiazepine receptors", "setting": "[6]", "value": "somewhat lower affinity"},
      {"measurement": "affinity for muscarinic receptors", "setting": "[7]", "value": "somewhat lower affinity"}
    ]},
    {"compound": "CCN(CC)CC#CCOC(=O)[C@](O)(c1ccccc1)C1CCCCC1", "note": "(single isomer, unassigned) [R(−)-isomer, R(−)-oxybutynin]", "values": [
      {"measurement": "prolongation of the QTc-interval of the EKG", "setting": "Male guinea pigs", "value": "cause a prolongation of the QTc-interval"},
      {"measurement": "anticholinergic activity", "setting": "[1]", "value": "practically all of the anticholinergic activity of OXY resides in the R(−)-isomer"}
    ]}
  ]
}
